Measurements from ChEMBL document CHEMBL6092170, “Activity of the Caged Xanthone Morellic Acid against Vancomycin-Resistant Enterococcus Infection by Targeting the Bacterial Membrane” (2024).
Converted amounts (≈) assume the structure as drawn. The source made the active and inactive calls. The calls are words filed in the database; no cut-off is given here.

Experiments:
Enterococcus faecalis [1] = assay: Antibacterial activity against vancomycin-resistant Enterococcus faecalis ATCC 51299 incubated for 24 hrs by CLSI based microdilution method; assay type: functional
Staphylococcus aureus [2] = assay: Antibacterial activity against methicillin-resistant Staphylococcus aureus incubated for 24 hrs by CLSI based microdilution method; assay type: functional
Enterococcus faecalis [3] = assay: Disruption of membrane integrity in vancomycin-resistant Enterococcus faecalis ATCC 51299 at 2 times MIC incubated for 2 hrs by Hoechst staining based CLSM analysis; assay type: functional, organism-based
Enterococcus faecalis [4] = assay: Disruption of membrane integrity in vancomycin-resistant Enterococcus faecalis ATCC 51299 at 2 times MIC incubated for 2 hrs by PI staining based CLSM analysis; assay type: functional, organism-based
Enterococcus faecalis [5] = assay: Disruption of membrane integrity in vancomycin-resistant Enterococcus faecalis ATCC 51299 at 2 times MIC incubated for 2 hrs by SYTOX Green staining based CLSM analysis; assay type: functional, organism-based
Staphylococcus aureus [6] = assay: Antibacterial activity against Staphylococcus aureus assessed as bacterial growth inhibition at 0.5 to 4 times MIC measured for 4 hrs by absorbance based assay; assay type: functional, organism-based
Enterococcus faecalis [7] = assay: Disruption of morphology in vancomycin-resistant Enterococcus faecalis ATCC 51299 at 4 times MIC incubated for 18 hrs by SEM analysis; assay type: functional, organism-based
Enterococcus faecalis [8] = assay: Antibacterial activity against vancomycin-resistant Enterococcus faecalis ATCC 51299 infected in specific pathogen-free Kunming mouse model of abdominal infection assessed as reduction in bacterial load in spleen at 10 mg/kg, ip measured after 72 hrs by plate counting method; assay type: functional, organism-based
Enterococcus faecalis [9] = assay: Antibacterial activity against vancomycin-resistant Enterococcus faecalis ATCC 51299 infected in specific pathogen-free Kunming mouse model of abdominal infection assessed as reduction in bacterial load in liver at 10 mg/kg, ip measured after 72 hrs by plate counting method; assay type: functional, organism-based
Enterococcus faecalis [10] = assay: Antibacterial activity against vancomycin-resistant Enterococcus faecalis ATCC 51299 infected in specific pathogen-free Kunming mouse model of abdominal infection assessed as reduction in bacterial load in kidney at 10 mg/kg, ip measured after 72 hrs by plate counting method; assay type: functional, organism-based
Enterococcus faecalis [11] = assay: Antibacterial activity against vancomycin-resistant Enterococcus faecalis ATCC 51299 infected in specific pathogen-free Kunming mouse model of abdominal infection assessed as reduction in bacterial load in abdominal effusion at 10 mg/kg, ip measured after 72 hrs by plate counting method; assay type: functional, organism-based
Enterococcus faecalis [12] = assay: Induction of resistance development in vancomycin-resistant Enterococcus faecalis ATCC 51299 at sub-MIC measured after 20 days of continuous passages; assay type: functional, organism-based; settings: time 20.0 day
Enterococcus faecalis [13] = assay: Induction of resistance development in vancomycin-resistant Enterococcus faecalis ATCC 51299 assessed as fold increase in activity at sub-MIC measured after 4 days of continuous passages relative to control; assay type: functional; settings: time 4 day
Enterococcus faecalis [14] = assay: Antibacterial activity against vancomycin-resistant Enterococcus faecalis ATCC 51299 assessed as bacterial growth inhibition at 0.5 to 4 times MIC measured after 12 hrs by absorbance based assay; assay type: functional, organism-based

SMILES | MIC (Enterococcus faecalis [1]) | MIC (Staphylococcus aureus [2]) | also measured
COc1c(O)cc2oc3cc(O)c(CCC(C)(C)O)c(O)c3c(=O)c2c1CC=C(C)C | 16 µg/mL (≈ 37.3 µM) | 16 µg/mL (≈ 37.3 µM) | 
COc1cc2oc3cc(O)c(OC)c(CC=C(C)C)c3c(=O)c2c(O)c1CC=C(C)C | 16 µg/mL (≈ 37.7 µM) | > 16 µg/mL | 
CC[C@H](C)[C@H](NC(=O)CN)C(=O)NCC(=O)N[C@@H](C)C(=O)N[C@H](C(=O)N[C@@H](CC(C)C)C(=O)N[C@@H](CCCCN)C(=O)N[C@H](C(=O)N[C@@H](CC(C)C)C(=O)N[C@H](C(=O)N[C@H](C(=O)NCC(=O)N[C@@H](CC(C)C)C(=O)N1CCC[C@H]1C(=O)N[C@@H](C)C(=O)N[C@@H](CC(C)C)C(=O)N[C@H](C(=O)N[C@@H](CO)C(=O)N[C@@H](Cc1c[nH]c2ccccc12)C(=O)N[C@H](C(=O)N[C@@H](CCCCN)C(=O)N[C@@H](CCCNC(=N)N)C(=O)N[C@@H](CCCCN)C(=O)N[C@@H](CCCNC(=N)N)C(=O)N[C@@H](CCC(N)=O)C(=O)N[C@@H](CCC(N)=O)C(N)=O)[C@@H](C)CC)[C@@H](C)CC)[C@@H](C)O)[C@@H](C)O)C(C)C)C(C)C |  |  | Activity (Enterococcus faecalis [3]): Active; Activity (Enterococcus faecalis [4]): Active; Activity (Enterococcus faecalis [5]): Active
COc1c(O)cc2oc3cc(O)c(CC=C(C)C)c(O)c3c(=O)c2c1CCC(C)(C)O [GARCINONE D] | 4 µg/mL (≈ 9.34 µM) | 8 µg/mL (≈ 18.7 µM) | 
COc1cc2oc3cc(OC)c(OC)c(CC=C(C)C)c3c(=O)c2c(O)c1CC=C(C)C | > 16 µg/mL | > 16 µg/mL | 
C=C(C)C1CC[C@]2(C)CC1c1c(O)c3c(c(CC=C(C)C)c1O2)O[C@]12C(=C[C@@H]4CC1C(C)(C)OC2(C/C=C(\C)C(=O)O)C4=O)C3=O (stereo partly drawn) | > 16 µg/mL | > 16 µg/mL | 
CO[C@@]1(NC(=O)Cc2cccs2)C(=O)N2C(C(=O)O)=C(COC(N)=O)CS[C@@H]21 [CEFOXITIN] |  | > 16 µg/mL | 
CC1(C)S[C@@H]2[C@H](NC(=O)[C@H](N)c3ccccc3)C(=O)N2[C@H]1C(=O)O [AMPICILLIN] | 4 µg/mL (≈ 11.4 µM) |  | inhibition (Staphylococcus aureus [6]): Active; Activity (Enterococcus faecalis [7]): Active; Activity (Enterococcus faecalis [8]): Active; Activity (Enterococcus faecalis [9]): Active; Activity (Enterococcus faecalis [10]): Active; Activity (Enterococcus faecalis [11]): Active
CC(C)=CCC[C@]1(C)CC(O)c2c(O)c3c(c(CC=C(C)C)c2O1)O[C@]12C(=C[C@@H]4C[C@H]1C(C)(C)O[C@@]2(C/C=C(/C)C(=O)O)C4=O)C3=O (stereo partly drawn) | 16 µg/mL (≈ 24.7 µM) | 8 µg/mL (≈ 12.4 µM) | 
CC(C)=CCc1c(O)cc2oc3cc(O)c(O)c(CC=C(C)C)c3c(=O)c2c1O | 4 µg/mL (≈ 10.1 µM) | 4 µg/mL (≈ 10.1 µM) | 
CC(C)=CCc1c(O)c(CC=C(C)C)c2oc3c(O)cccc3c(=O)c2c1O [8-DEOXYGARTANIN] | > 16 µg/mL | > 16 µg/mL | 
CCCCCCCCCC(=O)N[C@@H](Cc1c[nH]c2ccccc12)C(=O)N[C@@H](CC(N)=O)C(=O)N[C@@H](CC(=O)O)C(=O)N[C@@H]1C(=O)NCC(=O)N[C@@H](CCCN)C(=O)N[C@@H](CC(=O)O)C(=O)N[C@H](C)C(=O)N[C@@H](CC(=O)O)C(=O)NCC(=O)N[C@H](CO)C(=O)N[C@@H]([C@@H](C)CC(=O)O)C(=O)N[C@@H](CC(=O)c2ccccc2N)C(=O)O[C@@H]1C |  |  | Activity (Enterococcus faecalis [12]): inactive; fold change (FC) (Enterococcus faecalis [13]): 32
CC(C)=CCC[C@]1(C)C=Cc2c(O)c3c(c(CC=C(C)C)c2O1)O[C@]12C(=C[C@@H]4C[C@H]1C(C)(C)O[C@@]2(C/C=C(/C)C(=O)O)C4=O)C3=O [GAMBOGIC ACID] | 4 µg/mL (≈ 6.36 µM) | 4 µg/mL (≈ 6.36 µM) | 
CC(C)=CCc1c(O)c(CC=C(C)C)c2oc3c(O)ccc(O)c3c(=O)c2c1O [GARTANIN] | > 16 µg/mL | > 16 µg/mL | 
CN[C@H](CC(C)C)C(=O)N[C@H]1C(=O)N[C@@H](CC(N)=O)C(=O)N[C@H]2C(=O)N[C@H]3C(=O)N[C@H](C(=O)N[C@H](C(=O)O)c4cc(O)cc(O)c4-c4cc3ccc4O)[C@H](O)c3ccc(c(Cl)c3)Oc3cc2cc(c3O[C@@H]2O[C@H](CO)[C@@H](O)[C@H](O)[C@H]2O[C@H]2C[C@](C)(N)[C@H](O)[C@H](C)O2)Oc2ccc(cc2Cl)[C@H]1O |  |  | inhibition (Enterococcus faecalis [14]): inactive
COc1c(O)cc2oc3cc(O)c(CC=C(C)C)c(O)c3c(=O)c2c1CC=C(C)C [MANGOSTIN] | 4 µg/mL (≈ 9.75 µM) | 4 µg/mL (≈ 9.75 µM) | 
CC(C)=CCc1c(O)cc2oc3cc(O)c(O)c(CCC(C)(C)O)c3c(=O)c2c1O | > 16 µg/mL | 4 µg/mL (≈ 9.65 µM) | 
